Measured values reported in patent US20210238187A1, “AZIRIDINE CONTAINING EPOTHILONE ANALOGS, METHODS OF SYNTHESIS, METHODS OF TREATMENT, AND DRUG CONJUGATES” (WILLIAM MARSH RICE UNIVERSITY, priority 2017, published 2021).
Like-named read-outs stand apart in the source and are kept apart here. Non-standard residues stand in square brackets, D forms with d. Residues, ends and D or L forms follow the SMILES beside them. *: point of attachment. Dolaproine = CO[C@@H]([C@@H]1CCCN1)[C@@H](C)C(=O)O; Dil = CC[C@H](C)[C@H](NC)[C@@H](CC(=O)O)OC; X1 = C[C@@H](N*)[C@@H](O)c1ccccc1; NMeV = CN[C@H](C(=O)O)C(C)C

Columns and labels:
NCI/ADR-RES = assay: Cytotoxicity (GI50) assay, NCI/ADR-RES; assay type: cell-based, human; settings: Homo sapiens, NCI/ADR-RES, read-out: Cancer cell lines GI50, NCI/ADR-RES
MES SA = assay: Cytotoxicity assay (CellTiter-Glo), MES SA; assay type: cell-based, human; settings: read-out: Cancer cell lines IC50, MES SA
OVCAR-8 = assay: Cytotoxicity (GI50) assay, OVCAR-8; assay type: cell-based, human
MES SA DX = assay: Cytotoxicity assay (CellTiter-Glo), MES SA DX; assay type: cell-based, human; settings: read-out: Cancer cell lines IC50, MES SA DX
[1] = tested on: MES SA, MES SA DX, and HEK 293T; assay: Cytotoxicity (IC50), summary over MES SA, MES SA DX and HEK 293T; assay type: cell-based, human; settings: read-out: IC50 against all three cell lines (summary of Table 4)
Tubulin = Tubulin assembly induction; assay type: biochemical
MCF-7 = assay: Cytotoxicity (GI50) assay, MCF-7; assay type: cell-based, human
human cancer cell lines [2] = assay: cells; settings: read-out: GI50, range over the cell lines of Table 3
SNB-75 = assay: Cytotoxicity (GI50) assay, SNB-75; assay type: cell-based, human
MDA-MB-435 = assay: Cytotoxicity (GI50) assay, MDA-MB-435; assay type: cell-based, human
human cancer cell lines [3] = tested on: human cancer cell lines
HEK 293T = assay: Cytotoxicity assay (CellTiter-Glo), HEK 293T; assay type: cell-based; settings: Homo sapiens, 72 h, read-out: Cancer cell lines IC50, HEK 293T
[4] = MES-SA, human uterine sarcoma cell line, 72 hours, CellTiter-Glo
[5] = OVCAR-8, human ovarian cancer cell line, read-out: Cancer cell lines GI50, OVCAR-8
[6] = MCF7, human breast cancer cell line, concentration required to decrease cell growth by 50%, read-out: Cancer cell lines GI50, MCF-7
[7] = human uterine sarcoma cell line, 72 hours, CellTiter-Glo
[8] = highly drug resistant human ovarian cancer cell line
[9] = Homo sapiens, MES SA cell line with marked multidrug resistance, 72 hours, CellTiter-Glo
[10] = SNB-75, human glioblastoma cell line, read-out: Cancer cell lines GI50, SNB-75
[11] = MDA-MB-435, human melanoma cell line, read-out: Cancer cell lines GI50, MDA-MB-435
[12] = Homo sapiens, OVCAR-8, read-out: Cancer cell lines GI50, OVCAR-8
[13] = Homo sapiens, SNB-75, read-out: Cancer cell lines GI50, SNB-75
[14] = Homo sapiens, MCF7, read-out: Cancer cell lines GI50, MCF-7
[15] = Homo sapiens, MDA-MB-435, read-out: Cancer cell lines GI50, MDA-MB-435

| Molecule | GI50 (NCI/ADR-RES) [nM] | IC50 (MES SA; [4]) [nM] | GI50 (OVCAR-8; [5]) [nM] | IC50 (MES SA DX; Homo sapiens, MES-SA, 72 h) [nM] | GI50 (MCF-7; [6]) [nM] | EC50 (Tubulin; […]) [nM] | IC50 (HEK 293T) [nM] | IC50 (MES SA; Homo sapiens, MES-SA, 72 h) [nM] | GI50 (OVCAR-8; [12]) [nM] | GI50 (SNB-75; [13]) [nM] | GI50 (MCF-7; [14]) [nM] | GI50 (MDA-MB-435; [15]) [nM] | further results |
| --- | --- | --- | --- | --- | --- | --- | --- | --- | --- | --- | --- | --- | --- |
| CSc1cc(/C=C(\C)[C@@H]2C/C=C(/C)CCC[C@H](C)[C@H](O)[C@@H](C)C(=O)C(C)(C)[C@@H](O)CC(=O)O2)nn1C [compound 73, (4S,7R,8S,9S,13Z,16S)-4,8-Dihydroxy-5,5,7,9,13-pentamethyl-16-{(1E)-1-[1-methyl-5-(methylsulfanyl)-1H-pyrazol-3-yl]prop-1-en-2-yl}oxacyclohexadec-13-ene-2,6-dione] | 52 | 24.1 | 22 | 39.2 | 5 | – | – | – | – | – | – | – | IC50 ([1]; Homo sapiens): 0.17 to 39.2 nM; EC50 (Tubulin): 9300 nM; GI50 (human cancer cell lines [2]): 5 to 52 nM |
| N-acetyl calicheamicin γ1^1 [NAC, reference compound] | – | – | – | – | – | – | – | – | – | – | – | – | IC50 (MES SA; [7]): 0.364 nM; IC50 (MES SA DX): 15.3 nM; IC50 [1]: ≥ 0.166 nM |
| CC[C@H](C)[C@@H]([C@@H](CC(=O)N1CCC[C@H]1[C@H](OC)[C@@H](C)C(=O)N[C@H](C)[C@@H](O)c1ccccc1)OC)N(C)C(=O)[C@@H](NC(=O)[C@@H](NC)C(C)C)C(C)C [MMAE, monomethyl auristatin E, reference compound] (H-[NMeV]V[Dil][Dolaproine]-X1) | – | – | – | – | – | – | – | – | – | – | – | – | IC50 (MES SA; [7]): 0.096 nM; IC50 (MES SA DX): 88.2 nM; IC50 [1]: ≥ 0.068 nM |
| CC(=O)O[C@H]1C(=O)[C@@]2(C)[C@H]([C@H](OC(=O)c3ccccc3)[C@]3(O)C[C@H](OC(=O)[C@H](O)[C@@H](NC(=O)c4ccccc4)c4ccccc4)C(C)=C1C3(C)C)[C@]1(OC(C)=O)CO[C@@H]1C[C@@H]2O [paclitaxel, reference compound] | – | 2.47 | 26 | – | 7.8 | 15000 | – | – | – | – | – | – | GI50 (NCI/ADR-RES; [8]): 4800 nM; IC50 (MES SA DX; [9]): > 400 nM; IC50 ([1]; Homo sapiens): ≥ 1.76 nM; GI50 (SNB-75; [10]): 15 nM; GI50 (MDA-MB-435; [11]): 5 nM |
| CC(=O)[C@@H]1C[C@@H]2N(CCO)[C@]2(C)CCC[C@H](C)[C@H](O)[C@@H](C)C(=O)C(C)(C)[C@@H](O)CC(=O)O1 (stereo partly drawn) [compound 81, (1S,3S,7S,10R,11S,12S,16R)-3-Acetyl-7,11-dihydroxy-17-(2-hydroxyethyl)-8,8,10,12,16-penta-methyl-4-oxa-17-azabicyclo[14.1.0]heptadecane-5,9-dione] | – | 36.1 | 550 | – | 580 | > 60000 | – | – | – | – | – | – | GI50 (NCI/ADR-RES; [8]): > 5000 nM; IC50 (MES SA DX; [9]): > 400 nM; GI50 (SNB-75; [10]): 360 nM; cytotoxicity (in words) (human cancer cell lines [3]): significant cytotoxicity; GI50 (MDA-MB-435; [11]): 200 nM |
| C/C(=C\c1cc(C)no1)[C@@H]1C[C@@H]2N(CCO)[C@]2(C)CCC[C@H](C)[C@H](O)[C@@H](C)C(=O)C(C)(C)[C@@H](O)CC(=O)O1 (stereo partly drawn) [compound 29, (1S,3S,7S,10R,11S,12S,16R)-7,11-Dihydroxy-17-(2-hydroxyethyl)-8,8,10,12,16-pentamethyl-3-[(1E)-1-(3-methyl-1,2-oxazol-5-yl)prop-1-en-2-yl]-4-oxa-17-azabicyclo[14.1.0]heptadecane-5,9-dione] | 390 | – | – | > 70 | – | 45000 | 1.67 | 6.54 | 27 | 34 | 9.5 | 17 | – |
| C/C(=C\c1cnon1)[C@@H]1C[C@@H]2N(CCO)[C@]2(C)CCC[C@H](C)[C@H](O)[C@@H](C)C(=O)C(C)(C)[C@@H](O)CC(=O)O1 (stereo partly drawn) [compound 27, (1S,3S,7S,10R,11S,12S,16R)-7,11-Dihydroxy-17-(2-hydroxyethyl)-8,8,10,12,16-pentamethyl-3-[(1E)-1-(1,2,5-oxadiazol-3-yl)prop-1-en-2-yl]-4-oxa-17-azabicyclo[14.1.0]heptadecane-5,9-dione] | > 5000 | – | – | ≥ 2500 | – | > 60000 | 11.7 | 38.9 | 580 | 450 | 140 | 120 | – |
| CSc1nc(/C=C(\C)[C@@H]2C[C@@H]3N(CCS)[C@]3(C)CCC[C@H](C)[C@H](O)[C@@H](C)C(=O)C(C)(C)[C@@H](O)CC(=O)O2)cs1 (stereo partly drawn) [compound 35, (1S,3S,7S,10R,11S,12S,16R)-7,11-Dihydroxy-8,8,10,12,16-pentamethyl-3-{(1E)-1-[2-(methyl-sulfanyl)-1,3-thiazol-4-yl]prop-1-en-2-yl}-17-(2-sulfanylethyl)-4-oxa-17-azabicyclo[14.1.0]-heptadecane-5,9-dione] | 30 | – | – | 17 | – | > 60000 | 0.34 | 1.48 | 19 | 32 | 39 | 5.5 | – |
| C/C(=C\c1ccn(Cn2cccn2)n1)[C@@H]1C[C@@H]2N(CCO)[C@]2(C)CCC[C@H](C)[C@H](O)[C@@H](C)C(=O)C(C)(C)[C@@H](O)CC(=O)O1 (stereo partly drawn) [compound 25, (1S,3S,7S,10R,11S,12S,16R)-7,11-Dihydroxy-17-(2-hydroxyethyl)-8,8,10,12,16-pentamethyl-3-{(1E)-1-[1-(1H-pyrazol-1-ylmethyl)-1H-pyrazol-3-yl]prop-1-en-2-yl}-4-oxa-17-azabicyclo-[14.1.0]heptadecane-5,9-dione] | > 5000 | – | – | > 2500 | – | > 60000 | 27.7 | 10.3 | 130 | 24 | 32 | 19 | – |
